From paper PMC11601558, “SLC6A19 inhibition facilitates urinary neutral amino acid excretion and lowers plasma phenylalanine” (JCI Insight, 2024) come the findings set out here.

In this test the target is T1, human SLC6A19 (Homo sapiens, UniProt Q695T7).
T1 construct: expressed in transfected cells
T1 sequence (Q695T7 1-634): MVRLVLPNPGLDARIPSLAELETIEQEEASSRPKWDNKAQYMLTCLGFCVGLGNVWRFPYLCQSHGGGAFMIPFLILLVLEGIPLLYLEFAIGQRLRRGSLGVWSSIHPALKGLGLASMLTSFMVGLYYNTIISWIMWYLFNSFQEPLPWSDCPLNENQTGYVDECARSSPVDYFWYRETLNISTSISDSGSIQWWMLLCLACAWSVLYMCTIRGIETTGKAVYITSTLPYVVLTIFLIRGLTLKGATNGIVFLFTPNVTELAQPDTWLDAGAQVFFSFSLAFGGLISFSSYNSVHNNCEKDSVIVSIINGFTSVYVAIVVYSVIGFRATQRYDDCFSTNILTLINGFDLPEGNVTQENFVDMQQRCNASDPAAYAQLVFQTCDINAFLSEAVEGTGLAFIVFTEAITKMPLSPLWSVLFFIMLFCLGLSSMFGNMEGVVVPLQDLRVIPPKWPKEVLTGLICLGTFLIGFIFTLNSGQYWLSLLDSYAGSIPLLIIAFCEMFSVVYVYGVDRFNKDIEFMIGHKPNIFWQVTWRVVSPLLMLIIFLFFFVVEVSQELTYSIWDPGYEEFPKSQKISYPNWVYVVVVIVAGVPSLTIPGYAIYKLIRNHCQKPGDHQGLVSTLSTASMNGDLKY
T1 sequence (Q9HBJ8 15-222 partner): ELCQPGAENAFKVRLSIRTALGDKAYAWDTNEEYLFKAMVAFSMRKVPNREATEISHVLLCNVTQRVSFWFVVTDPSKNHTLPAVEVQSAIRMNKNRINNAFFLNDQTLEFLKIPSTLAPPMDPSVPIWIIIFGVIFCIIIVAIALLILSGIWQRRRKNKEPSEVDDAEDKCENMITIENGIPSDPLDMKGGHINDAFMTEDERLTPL
In words: Isoleucine transport assay, Flp-In T-REx 293 cells coexpressing human SLC6A19 and TMEM27. Format: cell-based. As to conditions: for isoleucine transport, Human (Fig 1f curve point) / isoleucine transport, Human (Fig 1c curve point): technical replicates. The procedure:
Flp-In T-REx 293 cells (Thermo Fisher Scientific) were engineered to coexpress C-terminally V5-tagged human or mouse SLC6A19 under the control of a tetracycline-inducible promoter and human or mouse myc-DDK-tagged TMEM27 under the control of a constitutively active promoter. Cells were maintained in DMEM/F12 medium supplemented with 10% FBS, 100 units/mL penicillin, 100 μg/mL streptomycin, 200 μg/mL hygromycin, 10 μg/mL blasticidin, and 300 μg/mL geneticin (all from Thermo Fisher Scientific) at 37°C and 5% CO2.
Flp-In T-REx 293 cells stably coexpressing human or mouse SLC6A19 and TMEM27 were plated in 384-well plates in the presence of 1 μg/mL tetracyclin (Sigma-Aldrich) to induce the expression of SLC6A19. After 24 hours, cells were washed with live cell imaging solution (LCIS, Thermo Fisher Scientific) before JN-170 or JNT-517 were added to cells in 10-point concentration response curves in 0.5% DMSO in Krebs buffer (140 mM NaCl, 4.7 mM KCl, 2.5 mM CaCl2, 1.2 mM MgCl2, 11 mM HEPES, 10 mM glucose, pH 7.4). Cells were incubated with compounds for 1 hour at room temperature before 1 mM ^13C6,^15N1-labeled L-isoleucine (Cambridge Isotope Laboratories) was added as a transport substrate. After 20 minutes incubation at room temperature, cells were washed and lysed in H2O with 15 μM internal standard D-Leucine-D10 (CDN Isotopes) for 1–2 hours. A standard curve of ^13C6,^15N1-L-isoleucine was added to each plate following cell lysis. Plates were centrifuged at 3,700g to remove cell debris, and supernatant was diluted in 2 steps to a final 1:10 dilution in acetonitrile/0.1% formic acid. Sample desalting was performed on a high throughput RapidFire-365 (Agilent) using a hydrophilic interaction liquid chromatography (HILIC) column. A quantitative time-of-flight (Q-ToF) mass spectrometer (Agilent) was used to detect analytes. Agilent MassHunter quantitative analysis for time of flight was used as the integration software for measuring area under the peak for both ^13C6,^15N1-L-isoleucine and D-Leucine-D10 internal standard.
IC50 values for transport inhibition in cells overexpressing SLC6A19 and TMEM27 were calculated using a 4-parameter logistic regression in Collaborative Drug Discovery (CDD). Reported IC50 values are geometric means of 4–6 independent experiments. For postmortem intestinal transport assays, single outliers of quadruplicate replicates were excluded from the calculation if a signal value’s distance to the mean exceeded 35% of the signal average. The IC50 values of individual experiments were calculated with a 3- or 4-parameter logistic regression using GraphPad Prism 9. The reported IC50 value represents the geometric mean of n = 5 experiments from 3 individual donors. Statistical comparison of urinary Phe excretion in Pah^enu2 mice treated with vehicle or JN-170 was conducted using 1-way analysis of variance (ANOVA) with Tukey’s post hoc comparison. Statistical analysis of baseline-adjusted plasma Phe in mice treated with vehicle or JN-170 was determined by 2-way ANOVA with Dunnett’s post hoc comparison. All statistical analyses were performed using GraphPad Prism 9. For clinical studies, group sizes were not determined based on statistical power calculations. Statistical significance of pharmacodynamic results was not assessed. Values are reported as mean (urinary Phe excretion, T1/2, Cl/F), geometric mean (Cmax/D, AUC0-inf/D), or median (Tmax).

Structures are written as SMILES. “And” between values parts separate entries of the source, which are not always exact repeats. Identical values can stand only once. Like-named read-outs stand apart in the source and are kept apart here. A value given as a limit tells only on which side of the number the result lay.

What is called IC50 is the midpoint of a concentration-inhibition curve. `N#Cc1ccc(-c2noc([C@]3(C(F)(F)F)CCN(C(=O)NCCC4(N)CC4)C3)n2)cc1` [JN-170]: the “fold less potent against human SLC6A19 than mouse SLC6A19” value is reported as more than 10 fold. Besides, the “isoleucine transport, Human (Fig 1f curve point)” value (0.000722 uM) was 84.3 and 86.8. Further, where the note is “0.00219 uM”, the “isoleucine transport, Human (Fig 1f curve point)” value is 72.6 and 89.2. Further, under “0.00438 uM”, the “isoleucine transport, Human (Fig 1f curve point)” value was 81.4 and 98.3. Also, where the note is “0.015313 uM”, the “isoleucine transport, Human (Fig 1f curve point)” value was 84.4 and 88.8. Further, the “isoleucine transport, Human (Fig 1f curve point)” value (0.048125 uM) is 85.9 and 72.3. The “isoleucine transport, Human (Fig 1f curve point)” value (0.144375 uM) is 64.5 and 70.3. Moreover, the “isoleucine transport, Human (Fig 1f curve point)” value (0.4375 uM) was 40 and 54.4. In addition, the “isoleucine transport, Human (Fig 1f curve point)” value (1.3125 uM) is 41.1 and 23.8. Moreover, under “3.9375 uM”, the “isoleucine transport, Human (Fig 1f curve point)” value is 21 and 4.32. Also, the “isoleucine transport, Human (Fig 1f curve point)” value (11.8125 uM) is 2.26 and -9.71. Further, the IC50 (geometric mean n = 6, 95% CI 0.68–2.82 μM, read-out: IC50 against human SLC6A19, isoleucine transport assay) is 1.25 µM.

In the case of `NC(=O)N1CCC[C@@H](N(C(=O)NCc2ccc(OC(F)(F)F)cc2F)C2CC2)C1` [JNT-517], the “isoleucine transport, Human (Fig 1c curve point)” value was 89.9 and 94.8 (0.000722 uM); 91.3 and 95.5 (0.00219 uM); 79.4 and 85.4 (0.00438 uM); 71.2 and 80.7 (0.0153125 uM); 33.9 and 45.4 (0.048125 uM); 25.9 and 24 (0.144375 uM). In addition, the “isoleucine transport, Human (Fig 1c curve point)” value reads like this: (0.4375 uM) 12.2 and 4.05; (1.3125 uM) -3.01 and -3.67; (3.9375 uM) -3.2 and -3.39; (11.8125 uM) -9.74 and -5.08. Besides, the IC50 (geometric mean n = 4, 95% CI 38–57 nM, read-out: potency (IC50) against human SLC6A19, isoleucine transport assay) is 0.047 µM.
